Assay results as given in US20040157800A1, “Ascorbyl derivatives of carnitines and cosmetic compositions containing same” (priority 2001, published 2004).
Counter-ions that a name gives are not always drawn. Each block holds one molecule with its values, some of them ahead of it.

Test: Weight increase, appearance and flowability after exposure to humidity (hygroscopicity)
Format: physicochemical
Conditions: for Appearance / Weight increase (%): 60% relative humidity at 25° C. for 42 hours; for Hygroscopicity of the solid (in words): isolated crystalline solid; for Flowability: time needed by a 10-gram sample to pass through a funnel of 4 mm diameter, after 60% relative humidity at 25° C. for 42 hours
Method: In the following Table 1, the weight increase (%) and the flowability of the compounds of the invention are compared with those of L-carnitine and acetyl L-carnitine inner salts following exposure of the compounds to 60% relative humidity at 25° C. for 42 hours. Reference method:
Pharmaeuropa November 1996.

Appearance: deliquescent
Weight increase (%): 19%
Molecule: C[N+](C)(C)C[C@H](O)CC(=O)[O-] [L-carnitine Inner salt, L-carnitine inner salt, reference compound]

Molecule: CC(=O)O[C@H](CC(=O)[O-])C[N+](C)(C)C [acetyl L-carnitine Inner salt, acetyl L-carnitine inner salt, reference compound]
Appearance: deliquescent
Weight increase (%): 20%

Molecule: Acetyl L-Carnitine Magnesium Ascorbyl Phosphate [Example 2]
Appearance: no variation
Weight increase (%): 0.14%
Hygroscopicity of the solid (in words): non-hygroscopic
Flowability: 6 s

Molecule: L-Carnitine Magnesium Ascorbyl Phosphate [Example 1]
Appearance: no variation
Weight increase (%): 0.12%
Hygroscopicity of the solid (in words): non-hygroscopic
Flowability: 5 s
